Measurements as given in the CheMixHub viscosity set.

Test: xn = mol fraction of the nth substance listed

CC1CCCCC1 + CCC(C)O
viscosity [mPa·s], 100 kPa
Details	x1 = 0.0811	x1 = 0.16	x1 = 0.24	x1 = 0.35	x1 = 0.4401	x1 = 0.56	x1 = 0.6501	x1 = 0.7401	x1 = 0.8492	x1 = 0.94
293.15 K	2.84	2.24	1.78	1.36	1.15	0.99	0.95	0.92	0.87	0.79
298.15 K	2.4	1.91	1.53	1.17	–	0.88	0.84	0.81	0.79	0.74
303.15 K	2.02	1.63	1.31	1.02	0.88	0.79	0.76	0.74	0.73	0.69
308.15 K	1.72	1.42	1.18	0.95	0.83	0.74	0.71	0.69	0.67	0.64
313.15 K	1.48	1.23	1.04	0.85	0.76	0.69	0.67	0.65	0.63	0.6
318.15 K	1.27	1.07	0.91	0.76	0.69	0.64	0.62	0.61	0.59	0.56
323.15 K	1.11	0.94	0.81	0.69	0.63	0.59	0.58	0.58	0.56	0.53

CCCCCl + CCC(C)O
viscosity [mPa·s], 101 kPa
Details	x1 = 0.0997	x1 = 0.1976	x1 = 0.3052	x1 = 0.4049	x1 = 0.497	x1 = 0.606	x1 = 0.7022	x1 = 0.8053	x1 = 0.9038
298.15 K	1.98	1.379	1.015	0.8086	0.6823	0.5809	0.5176	0.469	0.4366
313.15 K	1.234	0.9264	0.7261	0.6063	0.5279	0.4628	0.4198	0.3877	0.3663

CCCNCCC + CCC(C)O
303.15 K, 101 kPa
Details	viscosity [mPa·s]
x1 = 0.009464	2.442
x1 = 0.02067	2.411
x1 = 0.03223	2.381
x1 = 0.04172	2.358
x1 = 0.04996	2.336
x1 = 0.05928	2.313
x1 = 0.07049	2.286
x1 = 0.08687	2.251
x1 = 0.09038	2.238

CCCCCCCCCl + CCCCC
298 K, 101.3 kPa
Details	viscosity [mPa·s]
x2 = 0.1047	0.9664
x2 = 0.2064	0.8559
x2 = 0.3057	0.7414
x2 = 0.4042	0.6389
x2 = 0.5005	0.5441
x2 = 0.6018	0.4631
x2 = 0.7019	0.3926
x2 = 0.8048	0.324
x2 = 0.8982	0.2747

C1=CCCCC1 + CCCCCC
303.15 K, 101 kPa
Details	viscosity [mPa·s]
x1 = 0.1718	0.348
x1 = 0.2792	0.365
x1 = 0.3914	0.387
x1 = 0.5249	0.418
x1 = 0.5946	0.438
x1 = 0.6859	0.464
x1 = 0.8067	0.503
x1 = 0.9032	0.536

CC1CCCCC1 + CCCCCC
viscosity [mPa·s], 101 kPa
Details	293.15 K	298.15 K	303.15 K	308.15 K
x1 = 0.0401	0.3176	0.3005	0.2736	–
x1 = 0.1041	–	–	0.3003	–
x1 = 0.1042	–	0.334	0.318	0.301
x1 = 0.2002	0.3482	0.3336	0.3072	–
x1 = 0.202	–	–	0.3216	–
x1 = 0.2026	–	0.359	0.341	0.323
x1 = 0.2772	0.3681	0.3511	0.3256	–
x1 = 0.3005	–	–	0.3476	–
x1 = 0.301	–	0.373	0.354	0.335
x1 = 0.3562	0.3915	0.3713	0.3477	–
x1 = 0.3972	–	–	0.375	–
x1 = 0.4018	–	0.401	0.378	0.359
x1 = 0.4196	0.4131	0.3895	0.3654	–
x1 = 0.5015	–	–	0.4074	–
x1 = 0.5026	–	0.433	0.41	0.387
x1 = 0.5574	–	–	0.4286	–
x1 = 0.5875	0.4812	0.4512	0.4227	–
x1 = 0.6024	–	0.473	0.446	0.42
x1 = 0.6173	–	–	0.4495	–
x1 = 0.6796	0.5261	0.49	0.46	–
x1 = 0.7021	–	0.517	0.487	0.457
x1 = 0.7645	0.5729	0.5323	0.5001	–
x1 = 0.8006	–	–	0.5303	–
x1 = 0.8016	–	0.573	0.539	0.504
x1 = 0.8397	0.6187	0.5725	0.5388	–
x1 = 0.9002	–	–	0.5837	–
x1 = 0.9011	–	0.624	0.585	0.545
x1 = 0.9198	0.6688	0.6221	0.5865	–

CCOC(=O)c1ccccc1 + CCCCCC
101 kPa
Details	viscosity [mPa·s]
298.15 K, x2 = 0.0271	1.845
298.15 K, x2 = 0.1115	1.528
298.15 K, x2 = 0.1588	1.375
298.15 K, x2 = 0.2058	1.242
298.15 K, x2 = 0.3029	1.008
298.15 K, x2 = 0.3991	0.828
298.15 K, x2 = 0.4898	0.688
298.15 K, x2 = 0.5921	0.57
298.15 K, x2 = 0.6377	0.527
298.15 K, x2 = 0.6782	0.491
298.15 K, x2 = 0.7316	0.456
298.15 K, x2 = 0.773	0.426
298.15 K, x2 = 0.8227	0.394
298.15 K, x2 = 0.8654	0.371
298.15 K, x2 = 0.9101	0.354
298.15 K, x2 = 0.9517	0.341
303.15 K, x1 = 0.0927	0.329
303.15 K, x1 = 0.1853	0.38
303.15 K, x1 = 0.2811	0.448
303.15 K, x1 = 0.3781	0.531
303.15 K, x1 = 0.4761	0.634
303.15 K, x1 = 0.5765	0.764
303.15 K, x1 = 0.6794	0.93
303.15 K, x1 = 0.7852	1.147
303.15 K, x1 = 0.8902	1.41
308.15 K, x1 = 0.0927	0.315
308.15 K, x1 = 0.1853	0.366
308.15 K, x1 = 0.2811	0.429
308.15 K, x1 = 0.3781	0.508
308.15 K, x1 = 0.4761	0.603
308.15 K, x1 = 0.5765	0.72
308.15 K, x1 = 0.6794	0.877
308.15 K, x1 = 0.7852	1.065
308.15 K, x1 = 0.8902	1.303
308.15 K, x2 = 0.0828	1.413
308.15 K, x2 = 0.1328	1.29
308.15 K, x2 = 0.171	1.201
308.15 K, x2 = 0.2301	1.074
308.15 K, x2 = 0.2802	0.973
308.15 K, x2 = 0.3274	0.887
308.15 K, x2 = 0.3722	0.812
308.15 K, x2 = 0.4224	0.741
308.15 K, x2 = 0.4708	0.677
308.15 K, x2 = 0.5165	0.624
308.15 K, x2 = 0.5609	0.576
308.15 K, x2 = 0.6066	0.533
308.15 K, x2 = 0.6587	0.489
308.15 K, x2 = 0.7033	0.457
308.15 K, x2 = 0.7489	0.426
308.15 K, x2 = 0.7953	0.397
308.15 K, x2 = 0.8419	0.372
308.15 K, x2 = 0.8794	0.356
308.15 K, x2 = 0.9354	0.331
313.15 K, x1 = 0.0927	0.295
313.15 K, x1 = 0.1853	0.346
313.15 K, x1 = 0.2811	0.406
313.15 K, x1 = 0.3781	0.476
313.15 K, x1 = 0.4761	0.562
313.15 K, x1 = 0.5765	0.673
313.15 K, x1 = 0.6794	0.815
313.15 K, x1 = 0.7852	0.99
313.15 K, x1 = 0.8902	1.2
318.15 K, x2 = 0.0471	1.244
318.15 K, x2 = 0.1005	1.133
318.15 K, x2 = 0.149	1.036
318.15 K, x2 = 0.2038	0.939
318.15 K, x2 = 0.252	0.861
318.15 K, x2 = 0.3057	0.781
318.15 K, x2 = 0.352	0.718
318.15 K, x2 = 0.4057	0.652
318.15 K, x2 = 0.4516	0.602
318.15 K, x2 = 0.5027	0.55
318.15 K, x2 = 0.5475	0.51
318.15 K, x2 = 0.5991	0.47
318.15 K, x2 = 0.6439	0.439
318.15 K, x2 = 0.6933	0.41
318.15 K, x2 = 0.7382	0.387
318.15 K, x2 = 0.7869	0.364
318.15 K, x2 = 0.8296	0.346
318.15 K, x2 = 0.878	0.327
